# Assay results from patent publication US20240228535A1 (priority 2022, published 2024).
# Biological target: SARS2 coronavirus 3CL protease (Severe acute respiratory syndrome coronavirus 2, UniProt P0DTD1)
# Assay: biochemical
# Conditions: 5 nM enzyme, 30 min pre-incubation with compound, 15 μM peptide substrate, 4 h at room temperature; read-out: FRET Potency (nM); IC50 values in the SARS2 3CLPro FRET assay
row,SMILES,IC50
1,"CNC(=O)C(=O)[C@H](C[C@@H]1C[C@@H](C)NC1=O)NC(=O)c1cc(Cl)ccc1NC(=O)c1cccc(C(F)(F)F)n1 [Example 26, N-[4-chloro-2-[[(1S)-3-(methylamino)-1-[[(3S,5R)-5-methyl-2-oxo-pyrrolidin-3-yl]methyl]-2,3-dioxo-propyl]carbamoyl]phenyl]-6-(trifluoromethyl)pyridine-2-carboxamide]",17.4 nM
2,"C[C@@H]1C[C@@H](C[C@H](NC(=O)c2cc(Cl)cnc2NC(=O)C23CC(F)(C2)C3)C(=O)C(=O)NC2CC2)C(=O)N1 [Example 27, 5-chloro-N-[(1S)-3-(cyclopropylamino)-1-[[(3S,5R)-5-methyl-2-oxo-pyrrolidin-3-yl]methyl]-2,3-dioxo-propyl]-2-[(3-fluorobicyclo[1.1.1]pentane-1-carbonyl)amino]pyridine-3-carboxamide]",13.6 nM
3,"CNC(=O)C(=O)[C@H](C[C@@H]1C[C@@H](C)NC1=O)NC(=O)c1cc(F)cnc1NC(=O)c1cccc(C(F)(F)F)c1 [Example 28, 5-fluoro-N-[(1S)-3-(methylamino)-1-[[(3S,5R)-5-methyl-2-oxo-pyrrolidin-3-yl]methyl]-2,3-dioxo-propyl]-2-[[3-(trifluoromethyl)benzoyl]amino]pyridine-3-carboxamide]",13.2 nM
4,"O=C(CCC(F)(F)F)Nc1ccc(Cl)cc1C(=O)N[C@@H](C[C@@H]1CCNC1=O)C(=O)C(=O)NC1CC1 [Example 29, 5-chloro-N-[(1S)-3-(cyclopropylamino)-2,3-dioxo-1-[[(3S)-2-oxopyrrolidin-3-yl]methyl]propyl]-2-(4,4,4-trifluorobutanoylamino) benzamide]",13.1 nM
5,"O=C(NC1CC1)C(=O)[C@H](C[C@@H]1CCNC1=O)NC(=O)c1cc(Cl)ccc1NC(=O)C12CC(F)(C1)C2 [Example 30, N-[4-chloro-2-[[(1S)-3-(cyclopropylamino)-2,3-dioxo-1-[[(3S)-2-oxopyrrolidin-3-yl]methyl]propyl]carbamoyl]phenyl]-3-fluoro-bicyclo[1.1.1]pentane-1-carboxamide]",12.9 nM
6,"CNC(=O)C(=O)[C@H](C[C@@H]1C[C@@H](C)NC1=O)NC(=O)c1cc(Cl)ccc1NC(=O)OC(C)C [Example 31, isopropyl N-[4-chloro-2-[[(1S)-3-(methylamino)-1-[[(3S,5R)-5-methyl-2-oxo-pyrrolidin-3-yl]methyl]-2,3-dioxo-propyl]carbamoyl]phenyl] carbamate]",12.4 nM
7,"C[C@@H]1C[C@@H](C[C@H](NC(=O)c2cc(C#N)ccc2NC(=O)c2cccc(F)c2)C(=O)C(=O)NC2CC2)C(=O)N1 [Example 32, 5-cyano-N-[(1S)-3-(cyclopropylamino)-1-[[(3S,5R)-5-methyl-2-oxo-pyrrolidin-3-yl]methyl]-2,3-dioxo-propyl]-2-[(3-fluorobenzoyl)amino] benzamide]",12.3 nM
8,"C[C@@H]1C[C@@H](C[C@H](NC(=O)c2cc(Cl)c(F)cc2NC(=O)C2(C(F)(F)F)CC2)C(=O)C(=O)NC2CC2)C(=O)N1 [Example 33, 5-chloro-N-[(1S)-3-(cyclopropylamino)-1-[[(3S,5R)-5-methyl-2-oxo-pyrrolidin-3-yl]methyl]-2,3-dioxo-propyl]-4-fluoro-2-[[1-(trifluoromethyl)cyclopropane-carbonyl]amino]benzamide]",12.2 nM
9,"CNC(=O)C(=O)[C@H](C[C@@H]1C[C@@H](C)NC1=O)NC(=O)c1cc(Cl)ccc1NC(=O)C1(C(F)(F)F)CC1 [Example 34, 5-chloro-N-[(1S)-3-(methylamino)-1-[[(3S,5R)-5-methyl-2-oxo-pyrrolidin-3-yl]methyl]-2,3-dioxo-propyl]-2-[[1-(trifluoromethyl)cyclopropane-carbonyl]amino]benzamide]",11.2 nM
10,"C[C@@H]1C[C@@H](C[C@H](NC(=O)c2cc(Cl)ccc2NC(=O)C2(C(F)(F)F)CCC2)C(=O)C(=O)NC2CC2)C(=O)N1 [Example 35, 5-chloro-N-[(1S)-3-(cyclopropylamino)-1-[[(3S,5R)-5-methyl-2-oxo-pyrrolidin-3-yl]methyl]-2,3-dioxo-propyl]-2-[[1-(trifluoromethyl)cyclobutanecarbonyl]amino]benzamide]",11.1 nM
11,"O=C(NC1CC1)C(=O)[C@H](C[C@@H]1CCNC1=O)NC(=O)c1cc(Cl)ccc1NC(=O)C1(CC(F)(F)F)CC1 [Example 36, 5-chloro-N-[(1S)-3-(cyclopropylamino)-2,3-dioxo-1-[[(3S)-2-oxopyrrolidin-3-yl]methyl]propyl]-2-[[1-(2,2,2-trifluoroethyl)cyclopropane-carbonyl]amino]benzamide]",10.7 nM
12,"O=C(NC1CC1)C(=O)[C@H](C[C@@H]1CCNC1=O)NC(=O)c1cc(Cl)ccc1NC(=O)C12CC(F)(C1)C2 [Example 37, N-[4-chloro-2-[[(1S)-3-(cyclopropylamino)-2,3-dioxo-1-[[(3S)-2-oxopyrrolidin-3-yl]methyl]propyl]carbamoyl]phenyl]-3-fluoro-bicyclo[1.1.1]pentane-1-carboxamide]",10.7 nM
13,"O=C(CC(F)(F)F)Nc1ccc(Cl)cc1C(=O)N[C@@H](C[C@@H]1CCNC1=O)C(=O)C(=O)NC1CC1 [Example 38, 5-chloro-N-[(1S)-3-(cyclopropylamino)-2,3-dioxo-1-[[(3S)-2-oxopyrrolidin-3-yl]methyl]propyl]-2-(3,3,3-trifluoropropanoylamino) benzamide]",10.5 nM
14,"C[C@@H]1C[C@@H](C[C@H](NC(=O)c2cc(Cl)cnc2NC(=O)C2CCC(F)(F)CC2)C(=O)C(=O)NC2CC2)C(=O)N1 [Example 39, 5-chloro-N-[(1S)-3-(cyclopropylamino)-1-[[(3S,5R)-5-methyl-2-oxo-pyrrolidin-3-yl]methyl]-2,3-dioxo-propyl]-2-[(4,4-difluorocyclohexanecarbonyl)amino]pyridine-3-carboxamide]",10.3 nM
15,C[C@@H]1C[C@@H](C[C@H](NC(=O)c2cc(Cl)ccc2NC(=O)c2cccc(C(F)(F)F)n2)C(=O)C(=O)NC2CC2)C(=O)N1 [Example 40],10 nM
16,"CNC(=O)C(=O)[C@H](C[C@@H]1C[C@@H](C(F)(F)F)NC1=O)NC(=O)c1cc(Cl)ccc1NC(=O)C1CC(F)(F)C1 [Example 41, 5-chloro-2-[(3,3-difluorocyclobutanecarbonyl)amino]-N-[(1S)-3-(methylamino)-2,3-dioxo-1-[[(3R,5S)-2-oxo-5-(trifluoromethyl)pyrrolidin-3-yl]methyl]propyl]benzamide]",9.9 nM
17,"C[C@@H]1C[C@@H](C[C@H](NC(=O)c2cc(Cl)ccc2NC(=O)CC(F)(F)F)C(=O)C(=O)NC2CC2)C(=O)N1 [Example 42, 5-chloro-N-[(1S)-3-(cyclopropylamino)-1-[[(3S,5R)-5-methyl-2-oxo-pyrrolidin-3-yl]methyl]-2,3-dioxo-propyl]-2-(3,3,3-trifluoropropanoylamino) benzamide]",9.8 nM
18,"CNC(=O)C(=O)[C@H](C[C@@H]1C[C@@H](C(F)(F)F)NC1=O)NC(=O)c1cc(Cl)cnc1NC(=O)c1cccc(C(F)(F)F)c1 [Example 43, 5-chloro-N-[(1S)-3-(methylamino)-2,3-dioxo-1-[[(3R,5S)-2-oxo-5-(trifluoromethyl)pyrrolidin-3-yl]methyl]propyl]-2-[[3-(trifluoromethyl)benzoyl]amino]pyridine-3-carboxamide]",9.6 nM
19,"C[C@@H]1C[C@@H](C[C@H](NC(=O)c2cc(C(F)F)ccc2NC(=O)c2cccc(C(F)(F)F)c2)C(=O)C(=O)NC2CC2)C(=O)N1 [Example 44, N-[(1S)-3-(cyclopropylamino)-1-[[(3S,5R)-5-methyl-2-oxo-pyrrolidin-3-yl]methyl]-2,3-dioxo-propyl]-5-(difluoromethyl)-2-[[3-(trifluoromethyl)benzoyl]amino]benzamide]",9.4 nM
20,"CNC(=O)C(=O)[C@H](C[C@@H]1C[C@@H](C)NC1=O)NC(=O)c1cc(Cl)ccc1NC(=O)c1cccc(C(F)(F)F)c1 [Example 45, 5-chloro-N-[(1S)-3-(methylamino)-1-[[(3S,5R)-5-methyl-2-oxo-pyrrolidin-3-yl]methyl]-2,3-dioxo-propyl]-2-[[3-(trifluoromethyl)benzoyl]amino]benzamide]",9.4 nM
21,"CNC(=O)C(=O)[C@H](C[C@@H]1C[C@@H](C)NC1=O)NC(=O)c1cc(Cl)ccc1NC(=O)C12CC(C(F)(F)F)(C1)C2 [Example 46, N-[4-chloro-2-[[(1S)-3-(methylamino)-1-[[(3S,5R)-5-methyl-2-oxo-pyrrolidin-3-yl]methyl]-2,3-dioxo-propyl]carbamoyl]phenyl]-3-(trifluoromethyl)bicyclo[1.1.1] pentane-1-carboxamide]",8.9 nM
22,CNC(=O)C(=O)[C@H](C[C@@H]1CCNC1=O)NC(=O)c1cc(Cl)ccc1NC(=O)C12CC(F)(C1)C2 [Example 47],8.8 nM
23,"C[C@@H]1C[C@@H](C[C@H](NC(=O)c2cc(Cl)ccc2NC(=O)c2cccc(C(F)(F)F)c2)C(=O)C(N)=O)C(=O)N1 [Example 48, N-[(1S)-3-amino-1-[[(3S,5R)-5-methyl-2-oxo-pyrrolidin-3-yl]methyl]-2,3-dioxo-propyl]-5-chloro-2-[[3-(trifluoromethyl)benzoyl]amino]benzamide]",8.8 nM
24,"C[C@@H]1C[C@@H](C[C@H](NC(=O)c2cc(F)c(F)cc2NC(=O)c2ccnc(C(F)(F)F)c2)C(=O)C(=O)NC2CC2)C(=O)N1 [Example 49, N-[2-[[(1S)-3-(cyclopropylamino)-1-[[(3S,5R)-5-methyl-2-oxo-pyrrolidin-3-yl]methyl]-2,3-dioxo-propyl]carbamoyl]-4,5-difluoro-phenyl]-2-(trifluoromethyl)pyridine-4-carboxamide]",8.8 nM
25,"CNC(=O)C(=O)[C@H](C[C@@H]1C[C@@H](C)NC1=O)NC(=O)c1cc(Cl)cnc1NC(=O)C12CC(F)(C1)C2 [Example 50, 5-chloro-2-[(3-fluorobicyclo[1.1.1]pentane-1-carbonyl)amino]-N-[(1S)-3-(methylamino)-1-[[(3S,5R)-5-methyl-2-oxo-pyrrolidin-3-yl]methyl]-2,3-dioxo-propyl]pyridine-3-carboxamide]",8.7 nM
